In experiment [1] the test system is Puccinia recondita. Put plainly: Efficacy test against wheat brown rust, 100 mg/L and 10 mg/L (Experimental Example 2). The class given is in vivo. Conditions: nine to 14 days after inoculation; for efficacy compared with compound (1): 10 mg/L sprayed at 1,000 L/ha; for pest or weed control at 100 µg/mL: Puccinia recondita, 336 h, 100 mg/L sprayed at 1,000 L/ha, read-out: Protective value. Summed up:
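Wheat at two-leaf stage sprayed at 1,000 L/ha with diluted wettable formulation, dried, then spray-inoculated with P. recondita spores and held 48 h at 25 °C, high humidity, then greenhouse. Lesion degree scored 9–14 days post-inoculation; protective value (%) = (1 − treated/untreated lesion degree) × 100.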

A further experiment has as its system Cladosporium sp. Nature of the experiment: Plate medium assay, industrial material deteriorating microorganism, Cladosporium (Experimental Example 5). In kind it is cell-based. Conditions: treatment at 50 mg/l, PDA plate medium, read-out: growth inhibition grade. The method in brief:
(§1)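 PDA plates, compound 50 or 5 mg/L (from DMSO solution); inoculum = 4 mm plug of precultured mycelium. Readout: colony diameter vs untreated, R=100(dc-dt)/dc; 5-grade score.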

The next experiment deals with Coriolus versicolor. Nature of the experiment: Plate medium assay, wood denaturing microorganism Kawaratake (Experimental Example 5). The class given is cell-based. Conditions: Trametes versicolor; treatment at 50 mg/l, PDA plate medium; read-out: growth inhibition grade. The method in brief: as §1
The subject of experiment [2] is Puccinia recondita. Put plainly: Efficacy test against wheat brown rust, 1 mg/L (Experimental Example 10). The class given is in vivo. Conditions: 1 g/ha (1 mg/L sprayed at 1,000 L/ha).
The next experiment concerns Botrytis cinerea. Put plainly: Efficacy test against cucumber gray mold (Experimental Example 1). Conditions: 96 h, four days after inoculation, read-out: Protective value; for pest or weed control at 50 µg/mL: 50 mg/L sprayed at 1,000 L/ha; for pest or weed control at 100 µg/mL: 100 mg/L sprayed at 1,000 L/ha. In kind it is in vivo. Here is the method: Onto a cucumber (variety:SHARP1) plant in its cotyledon phase grown using a square plastic pot (6 cm×6 cm), a wettable formulation such as Formulation Example 1 which was diluted and suspended in water at a certain concentrations (100 mg/L and 50 mg/L) was sprayed at a rate of 1,000 L/ha. The sprayed leaves were air-dried, and loaded with a paper disc (8 mm in diameter) soaked in a spore suspension of Botrytis cinerea, and kept at 20 degrees C. and a high humidity. Four days after inoculation, the cucumber gray mold lesion degree was investigated, and the protective value was calculated by the following equation. Protective value (%)=(1−mean lesion degree in sprayed plot/mean lesion degree in unsprayed plot)×100

In the next experiment the test system is Trichoderma sp. Put plainly: Plate medium assay, industrial material deteriorating microorganism, Trichoderma (Experimental Example 5). In kind it is cell-based. Conditions: treatment at 50 mg/l, PDA plate medium, read-out: growth inhibition grade. Summed up: as §1
The next experiment has as its system Aspergillus sp. Nature of the experiment: Plate medium assay, industrial material deteriorating microorganism, Aspergillus (Experimental Example 5). In kind it is cell-based. Conditions: treatment at 50 mg/l, PDA plate medium, read-out: growth inhibition grade. Summed up: as §1
Experiment [3] deals with Septoria tritici. Put plainly: Microplate test of biocidal effect on wheat Septoria blotch (Experimental Example 4). In kind it is cell-based. Conditions: Zymoseptoria tritici, 240 h; % mycelium growth inhibition, absorbance 550 nm, 20 degrees C. for about 10 days; read-out: activity level (EC80). The method in brief:
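Septoria tritici spores (1×10^6 cells/ml suspension, diluted 100-fold in PD medium) incubated with compound added from DMSO stock at 100× test concentration. Percent mycelial growth inhibition computed from absorbance of treated versus untreated wells.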

In another experiment the test system is Fusarium graminearum. Nature of the experiment: whole plant or invertebrate. In kind it is in vivo. Conditions: in Triticum aestivum, 168 h, read-out: Protective value.
The subject of another experiment is Aureobasidium sp. Nature of the experiment: Plate medium assay, industrial material deteriorating microorganism, Aureobasidium (Experimental Example 5). Conditions: treatment at 50 mg/l, PDA plate medium, read-out: growth inhibition grade. The class given is cell-based. The method in brief: as §1
A further experiment relates to Tyromyces palustris. Put plainly: Plate medium assay, wood denaturing microorganism Oouzuratake (Experimental Example 5). In kind it is cell-based. Conditions: treatment at 50 mg/l, PDA plate medium; read-out: growth inhibition grade. The method in brief:
as §1

In experiment [4] the test system is Septoria tritici. Nature of the experiment: Assay for fungicidal effect on Septoria tritici, plate medium 1.25 mg/L (Experimental Example 9). In kind it is cell-based. Conditions: Zymoseptoria tritici, read-out: growth inhibition grade. On the procedure:
Each inventive compound was dissolved in 2 ml of dimethyl sulfoxide. 0.6 ml of this solution was added to 60 nil of a PDA medium (potato dextrose agar medium) at about 60 degrees C., which was mixed thoroughly in a 100-ml conical flask, and poured into a dish, where it was solidified, thereby obtaining a plate medium containing the inventive compound at 50 mg/L and 5 mg/L. On the other hand, a subject microorganism previously cultured on a plate medium was cut out using a cork borer whose diameter was 4 mm, and inoculated to the test compound-containing plate medium described above. […] The growth degree of the microorganism on the test compound-containing plate medium thus observed was compared with the growth degree of the microorganism in the untreated group, and % mycelial growth inhibition was calculated by the following equation. R=100(dc−dt)/dc wherein R=% mycelial extension inhibition, dc=flora diameter in untreated plate, dt=flora diameter in treated plate. The results obtained as described above were evaluated as one of the 5 grades according to the following criteria. […] In this Experimental Example, the fungicidal effects of the inventive compounds on Septoria tritici were examined by the methods described in the Experimental Example 5. In this Experimental Example, the inventive compounds were diluted at 1.25 mg/L.

Another experiment has as its system Curvularia sp. Nature of the experiment: Plate medium assay, industrial material deteriorating microorganism, Curvularia (Experimental Example 5). Conditions: treatment at 50 mg/l, PDA plate medium, read-out: growth inhibition grade. The class given is cell-based. The method in brief:
as §1

SMILES strings stand for the structures.

With `C[C@]1(CCl)CC[C@@H](Cc2ccc(F)cc2)[C@]1(O)Cn1cncn1` (racemic) [Compound I-77, (1RS,2SR,5SR)-2-chloromethyl-5-(4-fluorobenzyl)-2-methyl-1-(1H-1,2,4-triazol-1-ylmethyl)cyclopentanol], the “efficacy compared with compound (1)” value in the experiment on Puccinia recondita [1] is reported as “higher efficacy than that of compound (1)”. The pest or weed control at 100 µg/mL in the experiment with Puccinia recondita [1] is at least 90%; with Botrytis cinerea, at least 80%; with Fusarium graminearum it was at least 80%. Moreover, the inhibition at 50 µg/mL with Cladosporium sp., in the experiment on Coriolus versicolor, in the experiment with Trichoderma sp., with Aspergillus sp., with Aureobasidium sp. and with Tyromyces palustris was 60 to 80% throughout. The inhibition at 50 µg/mL in the experiment with Curvularia sp. lay within 60 to 80%. Further, the lesion degree in the experiment on Puccinia recondita [2] is reported as 0.5 (Less than 1%). For the same compound, in the experiment with Botrytis cinerea, the pest or weed control at 50 µg/mL is at least 80%. Also, the EC80 with Septoria tritici [3] is at most 0.2 µg/mL. For the same compound, the pest or weed control at 500 µg/mL with Fusarium graminearum is at least 90%. The inhibition at 1.25 µg/mL with Septoria tritici [4] was over 80%.
In the case of `C[C@]1(CCl)CC[C@@H](Cc2ccc(Cl)cc2)[C@]1(O)Cn1cncn1` (racemic) [Compound I-1, (1RS,2SR,5SR)-5-(4-chlorobenzyl)-2-chloromethyl-2-methyl-1-(1H-1,2,4-triazol-1-ylmethyl)cyclopentanol], the “efficacy compared with compound (1)” value in the experiment with Puccinia recondita [1] was “higher efficacy than that of compound (1)”. Further, the pest or weed control at 100 µg/mL in the experiment with Puccinia recondita [1] was at least 90%; in the experiment on Botrytis cinerea, at least 80%; in the experiment with Fusarium graminearum, at least 80%. Further, the inhibition at 50 µg/mL in the experiment with Cladosporium sp., in the experiment on Coriolus versicolor, in the experiment on Trichoderma sp., in the experiment on Aspergillus sp., with Aureobasidium sp. and with Tyromyces palustris was 60 to 80% in each case. Besides, the inhibition at 50 µg/mL in the experiment on Curvularia sp. was 60 to 80%. Further, the lesion degree with Puccinia recondita [2] is reported as 0.5 (Less than 1%). Also, the pest or weed control at 50 µg/mL in the experiment on Botrytis cinerea was at least 80%. The EC80 in the experiment on Septoria tritici [3] is at most 0.2 µg/mL. Further, in the experiment on Fusarium graminearum, the pest or weed control at 500 µg/mL is at least 90%. For the same compound, the inhibition at 1.25 µg/mL with Septoria tritici [4] was over 80%.
Regarding `C[C@]1(CCl)CC[C@@H](Cc2ccccc2)[C@]1(O)Cn1cncn1` (racemic) [Compound I-73, (1RS,2SR,5SR)-2-chloromethyl-5-benzyl-2-methyl-1-(1H-1,2,4-triazol-1-ylmethyl)cyclopentanol], the “efficacy compared with compound (1)” value in the experiment with Puccinia recondita [1] is “higher efficacy than that of compound (1)”. Also, the values for the pest or weed control at 100 µg/mL in the experiment on Puccinia recondita [1], in the experiment on Botrytis cinerea and in the experiment on Fusarium graminearum were at least 90%, at least 80% and at least 80%, respectively. Besides, the inhibition at 50 µg/mL in the experiment with Cladosporium sp., in the experiment with Coriolus versicolor, with Trichoderma sp., in the experiment on Aspergillus sp., in the experiment with Aureobasidium sp. and in the experiment on Tyromyces palustris was 60 to 80% each time. In addition, in the experiment with Curvularia sp., the inhibition at 50 µg/mL was in the range of 60 to 80%. Besides, the lesion degree in the experiment with Puccinia recondita [2] is given as 0.5 (Less than 1%). Moreover, the pest or weed control at 50 µg/mL with Botrytis cinerea is at least 80%. For the same compound, the EC80 in the experiment on Septoria tritici [3] is at most 0.2 µg/mL. For the same compound, in the experiment on Fusarium graminearum, the pest or weed control at 500 µg/mL is at least 90%. The inhibition at 1.25 µg/mL in the experiment on Septoria tritici [4] was over 80%.

These data come from patent US9145351B2, “Azole derivatives, methods for producing the same, intermediate thereof, agro-horticultural agents” (KUREHA CORPORATION, priority 2009, dated 2015).
